For data set [1] the following is noted: cited from earlier work.
Data set [2] addresses T1, κOR (Homo sapiens, UniProt P41145). Put plainly: Radioligand binding assay with [3H]U69,593. Conditions: read-out: Affinity (pKi ± SEM) (converted).
The target in data set [3] is T2, δOR (Mus musculus, UniProt P32300).
T2 construct: FLAG; expressed in transfected cells; host or cells: HEK 293
The experiment in a line: Assessment of allosteric modulation of Leu-enkephalin in δOR glosensor cAMP assay. It is filed as cell-based. (Cyclic AMP is a second messenger, typically raised through Gs and lowered through Gi signalling.)

Data set [4] concerns the target T3, δOR (Homo sapiens, UniProt P41143). Put plainly: PathHunter β-arrestin 1 recruitment, U2OS cells (also library screen). It is filed as cell-based. Conditions: read-out: β-ARR1 potency (pEC50) (converted).
The target in data set [5] is T3, δOR. The experiment in a line: Radioligand binding assay with [3H]DPDPE.
Data set [6] deals with T4, µOR (Homo sapiens, UniProt P35372). Put plainly: Radioligand binding assay with [3H]DAMGO. As to conditions: read-out: Affinity (pKi ± SEM) (converted).
The target in data set [7] is T1, κOR. Put plainly: GloSensor cAMP inhibition assay (forskolin-induced cAMP). It is filed as cell-based. Conditions: read-out: cAMP Potency (pIC50 ± SEM) (converted).
Data set [8] deals with T3, δOR. Put plainly: PathHunter β-arrestin 2 recruitment, CHO-human δOR cells. The format is cell-based. Conditions: read-out: β-ARR2 potency (pEC50) (converted).
The target in data set [9] is T2, δOR. Put plainly: GloSensor cAMP inhibition assay (forskolin-induced cAMP) in HEK 293 cells. It is filed as cell-based.
Data set [10] addresses µOR (Mus musculus, UniProt P42866). The data set is described as above. The format is cell-based. As to conditions: read-out: cAMP Potency (pIC50 ± SEM) (converted).
The target in data set [11] is T3, δOR. More on the design: method as in PMID 26507558, PMID 20850307, doi:10.1016/S0021-5198(19)49890-9. As to conditions: ref [14],[18],[19]; cited from earlier work.
For data set [12], the target named is T4, µOR. On the set-up: method as in PMID 27533032. As to conditions: ref [32]; read-out: affinity at the µOR; cited from earlier work.
Data set [13] concerns the target T1, κOR. On the set-up: method as in PMID 28339199. As to conditions: ref [36]; read-out: potency at the κOR; cited from earlier work.
Data set [14] has as its target T1, κOR. On the set-up: method as in PMID 28339199. Conditions: ref [36]; read-out: affinity at the κOR; cited from earlier work.
The mark [15] stands for this setting: Table 2, three or more independent trials, read-out: pIC50 ± SEM to inhibit cAMP signaling at δOR (converted).

This is an account of results in paper PMC8659279, “Identification of a Novel Delta Opioid Receptor Agonist Chemotype with Potential Negative Allosteric Modulator Capabilities” (Molecules, 2021).

Like-named read-outs stand apart in the source and are kept apart here.

T3 sequence (P41143 whole entry): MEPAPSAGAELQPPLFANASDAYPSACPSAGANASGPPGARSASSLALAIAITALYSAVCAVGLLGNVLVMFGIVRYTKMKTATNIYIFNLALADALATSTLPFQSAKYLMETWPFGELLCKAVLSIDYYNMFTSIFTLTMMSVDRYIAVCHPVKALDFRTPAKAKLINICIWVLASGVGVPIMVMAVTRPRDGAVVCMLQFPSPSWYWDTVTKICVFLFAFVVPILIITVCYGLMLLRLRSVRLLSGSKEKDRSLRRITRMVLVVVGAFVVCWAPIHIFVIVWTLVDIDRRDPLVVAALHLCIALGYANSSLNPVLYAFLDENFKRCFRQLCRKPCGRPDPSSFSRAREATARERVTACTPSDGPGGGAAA
T1 sequence (P41145 whole entry): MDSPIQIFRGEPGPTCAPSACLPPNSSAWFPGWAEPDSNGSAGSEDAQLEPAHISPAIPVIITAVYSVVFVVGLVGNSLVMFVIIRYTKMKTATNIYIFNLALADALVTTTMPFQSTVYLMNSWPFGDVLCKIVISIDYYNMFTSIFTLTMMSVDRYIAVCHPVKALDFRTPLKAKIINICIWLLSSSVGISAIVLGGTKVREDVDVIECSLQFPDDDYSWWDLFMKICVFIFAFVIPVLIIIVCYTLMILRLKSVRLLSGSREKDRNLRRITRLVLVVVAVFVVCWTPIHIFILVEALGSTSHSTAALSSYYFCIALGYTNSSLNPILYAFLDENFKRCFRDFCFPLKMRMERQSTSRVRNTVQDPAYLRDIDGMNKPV
T2 sequence (P32300 whole entry): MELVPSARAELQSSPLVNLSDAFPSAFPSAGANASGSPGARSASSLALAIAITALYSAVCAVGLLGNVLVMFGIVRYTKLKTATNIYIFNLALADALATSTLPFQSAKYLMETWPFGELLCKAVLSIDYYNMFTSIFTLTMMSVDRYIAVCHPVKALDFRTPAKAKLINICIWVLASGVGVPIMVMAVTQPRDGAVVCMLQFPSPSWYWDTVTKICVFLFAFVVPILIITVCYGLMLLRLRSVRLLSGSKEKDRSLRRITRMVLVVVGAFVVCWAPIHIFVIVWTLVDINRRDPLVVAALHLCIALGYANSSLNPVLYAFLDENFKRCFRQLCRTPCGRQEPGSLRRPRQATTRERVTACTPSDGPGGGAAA
T4 sequence (P35372 whole entry): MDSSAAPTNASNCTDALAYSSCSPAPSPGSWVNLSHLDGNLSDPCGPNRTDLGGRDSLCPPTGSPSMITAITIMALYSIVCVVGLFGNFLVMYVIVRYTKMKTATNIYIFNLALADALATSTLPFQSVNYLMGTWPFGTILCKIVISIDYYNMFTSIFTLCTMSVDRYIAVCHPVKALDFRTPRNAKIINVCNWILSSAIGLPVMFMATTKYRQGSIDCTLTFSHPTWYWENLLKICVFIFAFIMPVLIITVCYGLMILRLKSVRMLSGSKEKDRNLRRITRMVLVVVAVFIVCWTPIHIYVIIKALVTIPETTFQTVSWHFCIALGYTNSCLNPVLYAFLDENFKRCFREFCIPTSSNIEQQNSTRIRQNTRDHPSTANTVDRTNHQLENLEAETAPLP
Chain of µOR (Mus musculus, UniProt P42866) (P42866 whole entry): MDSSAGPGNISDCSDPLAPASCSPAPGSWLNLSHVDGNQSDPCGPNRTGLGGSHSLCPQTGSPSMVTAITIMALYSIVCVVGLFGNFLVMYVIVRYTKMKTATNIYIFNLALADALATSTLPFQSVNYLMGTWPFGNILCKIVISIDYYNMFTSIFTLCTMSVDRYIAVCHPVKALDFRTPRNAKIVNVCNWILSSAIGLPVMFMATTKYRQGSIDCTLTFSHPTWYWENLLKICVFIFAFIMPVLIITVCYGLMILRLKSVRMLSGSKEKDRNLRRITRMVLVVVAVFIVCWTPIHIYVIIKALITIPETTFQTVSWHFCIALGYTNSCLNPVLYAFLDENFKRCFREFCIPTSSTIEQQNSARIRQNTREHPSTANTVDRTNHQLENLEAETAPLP

As for `CCN(CC)C(=O)c1ccc([C@H](c2cccc(N)c2)N2C[C@@H](C)N(Cc3ccc(F)cc3)C[C@@H]2C)cc1` [AZD2327], in [1] (ref [8]), the proconvulsant effects result was “proconvulsant effects”. As for `COc1cccc(C=NNC(=O)c2cc(-c3cccs3)n[nH]2)c1O` [Compound 1, N’-(2-hydroxy-3-methoxybenzylidene)-3-(2-thienyl)-1H-pyrazole-5-carbohydrazide], the Ki on κOR [2] is > 10 µM; on δOR [5] (δOR, read-out: Affinity (pKi ± SEM) (converted)), 1.15 µM; on µOR [6], > 10 µM. Moreover, on δOR [3] (Leu-enkephalin co-incubated with 0.1-10 µM compound 1), the “modulation of Leu-enkephalin activity in cAMP glosensor assay” value is recorded as “negative allosteric modulator (NAM)-agonist”. Also, on δOR [3] (Leu-enkephalin co-incubated with increasing concentrations of compound 1), the “β (change in Leu-enkephalin Emax)” value stood at 1. The EC50 on δOR [4] and on δOR [8] was > 10 µM in each case. Besides, the “affinity and potency at δOR stronger than for µOR and κOR (selectivity)” value on δOR [5] (δOR over µOR and κOR) was “roughly 10 fold”. Besides, the IC50 was > 10 µM at κOR [7]; 1 µM at δOR [9] (setting [15]); 0.977 µM on δOR [9] (δOR, read-out: cAMP Potency (pIC50 ± SEM) (converted)); > 10 µM on µOR [10]. `O=C(N/N=C/c1ccccc1)c1cc(-c2cccs2)n[nH]1` [Compound 2]: on δOR [9] (setting [15]), the IC50 was 12.6 µM.

`Cc1cccc(/C=N/NC(=O)c2cc(-c3cccs3)n[nH]2)c1` [Compound 3]: on δOR [9] (setting [15]), the IC50 was 7.94 µM. As to `O=C(N/N=C/c1ccc(Cl)cc1)c1cc(-c2cccs2)n[nH]1` [Compound 4], at δOR [9] (setting [15]), the IC50 is 12.6 µM. On the same count and under the same terms, as for `CCOc1cccc(/C=N/NC(=O)c2cc(-c3ccco3)n[nH]2)c1O` [Compound 5], the figure is 10 µM. In the case of `O=C(N/N=C/c1ccc(O)c(O)c1)c1cc(-c2cccs2)n[nH]1` [Compound 6], the IC50 at δOR [9] (setting [15]) was 12.6 µM. For the molecule `COc1cc(/C=N/NC(=O)c2cc(-c3cccs3)n[nH]2)cc(OC)c1OC` [Compound 8], at δOR [9] (setting [15]), the IC50 is 10 µM. As for `COc1cccc(/C=N/NC(=O)c2cc(-c3cccs3)n[nH]2)c1` [Compound 9], the IC50 at δOR [9] (setting [15]) is 15.8 µM. Same read-out and setting: as for `CCOc1cccc(/C=N/NC(=O)c2cc(-c3ccc(Cl)s3)n[nH]2)c1O` [Compound 10], the figure is 7.94 µM; as for `COc1ccc(/C=N/NC(=O)c2cc(-c3ccc(C)s3)n[nH]2)cc1OC` [Compound 11], 3.98 µM. On the same count and under the same terms, as for `COc1cccc(/C=N/NC(=O)c2cc(-c3ccco3)n[nH]2)c1O` [Compound 12], the figure is 7.94 µM. On to `COc1cccc(/C=N/NC(=O)c2cc(-c3ccc(Cl)s3)n[nH]2)c1O` [Compound 13], for which the IC50 on δOR [9] (setting [15]) is 7.94 µM. Still for that read-out and setting: as for `COc1cccc(/C=N/NC(=O)c2cc(-c3ccc(Br)s3)n[nH]2)c1O` [Compound 14], the figure is 10 µM; as for `COc1cc(/C=N/NC(=O)c2cc(-c3ccc(C)s3)n[nH]2)ccc1O` [Compound 15], 10 µM. Take `CN1CCC23Cc4nc5ccccc5cc4CC2(O)C1Cc1ccc(O)cc13` (stereo not drawn) [KNT-127]: the “Emax for β-arrestin 2 recruitment” value at δOR [11] was 70%. Besides, in data set [1] (ref [14],[18],[19]), the convulsions entry is “do not induce convulsions”. With `CN(C)C(=O)c1ccc(C(=C2CCN(Cc3cncs3)CC2)c2cccc(C(N)=O)c2)cc1` [PN6047], in [1] (ref [17]), the proconvulsant effects result is given as “not proconvulsant”. For `C[C@H](Cc1cccs1)NC(=O)NC[C@H](Cc1ccc(O)cc1)N(C)C` [PZM21], the Ki on µOR [12] was 0.001 µM. As for `CN1CCC2(c3cccc(O)c3)Cc3nc4ccccc4cc3CC2C1` (stereo not drawn) [TAN-67], the “Emax for β-arrestin 2 recruitment” value at δOR [11] is on record as 30%.

Regarding `CC(c1cccc(O)c1)N(C)CCc1nccn1C` (stereo not drawn) [compound 81], the EC50 on κOR [13] is 0.53 µM. Further, the Ki on κOR [14] was 0.16 µM.
